In ChEMBL document CHEMBL4507278 (2021):

Tests used:
[1] = biological target: T1, D(4) dopamine receptor (Homo sapiens) (UniProt P21917); assay: D4.2/H Eurofins-Panlabs selectivity data (BI); settings: Compound concentration 10.0 uM
T1 sequence (whole entry): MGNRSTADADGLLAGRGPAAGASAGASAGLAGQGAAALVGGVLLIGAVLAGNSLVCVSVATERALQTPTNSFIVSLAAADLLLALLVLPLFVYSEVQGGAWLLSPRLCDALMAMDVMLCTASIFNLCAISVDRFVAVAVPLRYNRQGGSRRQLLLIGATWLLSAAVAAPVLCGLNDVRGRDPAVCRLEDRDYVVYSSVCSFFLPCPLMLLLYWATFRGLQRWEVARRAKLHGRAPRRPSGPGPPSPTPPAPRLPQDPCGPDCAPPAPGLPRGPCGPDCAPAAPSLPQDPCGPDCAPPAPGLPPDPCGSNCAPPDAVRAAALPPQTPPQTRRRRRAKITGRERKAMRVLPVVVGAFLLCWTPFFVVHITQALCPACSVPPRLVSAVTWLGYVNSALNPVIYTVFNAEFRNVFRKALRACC

[2] = biological target: Glutamate receptor ionotropic, NMDA 2A (Rattus norvegicus) (UniProt Q00959); assay: NMDAPHSI/R Eurofins-Panlabs selectivity data (BI); settings: Compound concentration 10.0 uM
[3] = biological target: Histamine H3 receptor (Homo sapiens) (UniProt Q9Y5N1); assay: H3/H Eurofins-Panlabs selectivity data (BI); settings: Compound concentration 10.0 uM
[4] = biological target: Endothelin-1 receptor (Homo sapiens) (UniProt P25101); assay: ETA/HU Eurofins-Panlabs selectivity data (BI); settings: Compound concentration 10.0 uM
[5] = biological target: Adenosine receptor A3 (Homo sapiens) (UniProt P0DMS8); assay: A3/H Eurofins-Panlabs selectivity data (BI); settings: Compound concentration 10.0 uM
[6] = biological target: Glutamate NMDA receptor (Rattus norvegicus) (UniProt P35439+Q00959+Q00960+Q00961+Q62645+Q8VHN2+Q9R1M7); assay: NMDAAGSI/RA Eurofins-Panlabs selectivity data (BI); format: protein-complex assay; settings: filed as agonist, Compound concentration 10.0 uM
[7] = biological target: Gamma-aminobutyric acid receptor subunit alpha-1 (Rattus norvegicus) (UniProt P62813); assay: GABAA MUSCIMOL CENT Eurofins-Panlabs selectivity data (BI); settings: Compound concentration 10.0 uM
[8] = biological target: D(1A) dopamine receptor (Homo sapiens) (UniProt P21728); assay: D1/HU Eurofins-Panlabs selectivity data (BI); settings: Compound concentration 10.0 uM
[9] = biological target: hERG (KCNH2) (Homo sapiens, UniProt Q12809); assay: K+/HERG Eurofins-Panlabs selectivity data (BI); settings: compound concentration 10 uM, read-out: % Ctrl
[10] = biological target: Platelet-activating factor receptor (Homo sapiens) (UniProt P25105); assay: PAF/H Eurofins-Panlabs selectivity data (BI); settings: Compound concentration 10.0 uM
[11] = biological target: Sodium-dependent serotonin transporter (Homo sapiens) (UniProt P31645); assay: 5HTTRANS/HU Eurofins-Panlabs selectivity data (BI); settings: Compound concentration 10.0 uM
[12] = biological target: T2, Alpha-2A adrenergic receptor (Homo sapiens) (UniProt P08913); assay: ALPHA2A/H Eurofins-Panlabs selectivity data (BI); settings: Compound concentration 10.0 uM
T2 sequence (whole entry): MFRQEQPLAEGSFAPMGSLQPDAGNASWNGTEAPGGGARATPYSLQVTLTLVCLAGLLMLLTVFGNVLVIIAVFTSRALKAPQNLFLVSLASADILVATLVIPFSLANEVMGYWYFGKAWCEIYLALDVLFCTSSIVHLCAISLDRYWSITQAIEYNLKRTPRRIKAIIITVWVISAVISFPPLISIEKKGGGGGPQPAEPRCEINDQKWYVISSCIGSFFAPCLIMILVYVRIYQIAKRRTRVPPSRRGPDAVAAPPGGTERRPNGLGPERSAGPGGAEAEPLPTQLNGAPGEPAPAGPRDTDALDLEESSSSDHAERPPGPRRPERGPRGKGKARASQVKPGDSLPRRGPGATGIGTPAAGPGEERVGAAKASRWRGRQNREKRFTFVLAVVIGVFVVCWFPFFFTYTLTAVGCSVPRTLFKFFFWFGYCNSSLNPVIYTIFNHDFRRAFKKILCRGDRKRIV

[13] = biological target: Beta-1 adrenergic receptor (Homo sapiens, UniProt P08588); assay: GPCRScan assay: inhibition of Beta1; set-up: radioligand conc. used [nm] 0.1 – 0.2, parental cells CHO Flp-In
[14] = biological target: Endothelin receptor type B (Homo sapiens) (UniProt P24530); assay: ETB/HUM Eurofins-Panlabs selectivity data (BI); settings: Compound concentration 10.0 uM
[15] = biological target: Glutamate receptor ionotropic, NMDA 1 (Rattus norvegicus) (UniProt P35439); assay: NMDAGLSI/RA Eurofins-Panlabs selectivity data (BI); settings: Compound concentration 10.0 uM
[16] = biological target: Prostaglandin E2 receptor EP4 subtype (Homo sapiens) (UniProt P35408); assay: PEP4_HU Eurofins-Panlabs selectivity data (BI); settings: Compound concentration 10.0 uM
[17] = biological target: Mu-type opioid receptor (Homo sapiens) (UniProt P35372); assay: MU/HU Eurofins-Panlabs selectivity data (BI); settings: Compound concentration 10.0 uM
[18] = biological target: Histamine H2 receptor (Homo sapiens) (UniProt P25021); assay: H2/H Eurofins-Panlabs selectivity data (BI); settings: Compound concentration 10.0 uM
[19] = biological target: Gamma-aminobutyric acid type B receptor subunit 1 (Homo sapiens) (UniProt Q9UBS5); assay: GABA_B1A Eurofins-Panlabs selectivity data (BI); settings: Compound concentration 10.0 uM
[20] = biological target: Interleukin-1 receptor type 1 (Mus musculus) (UniProt P13504); assay: IL-1 Eurofins-Panlabs selectivity data (BI); settings: Compound concentration 10.0 uM
[21] = biological target: P2Y purinoceptor 1 (Rattus norvegicus) (UniProt P49651); assay: P2Y/RAT Eurofins-Panlabs selectivity data (BI); settings: Compound concentration 10.0 uM
[22] = biological target: 5-hydroxytryptamine receptor 2B (Homo sapiens) (UniProt P41595); assay: 5HT2B/HU Eurofins-Panlabs selectivity data (BI); settings: Compound concentration 10.0 uM
[23] = biological target: Sodium- and chloride-dependent GABA transporter 1 (Rattus norvegicus) (UniProt P23978); assay: GABATRANS/RA Eurofins-Panlabs selectivity data (BI); settings: Compound concentration 10.0 uM
[24] = biological target: Estrogen receptor (Homo sapiens) (UniProt P03372); assay: ERALPHA/H Eurofins-Panlabs selectivity data (BI); settings: Compound concentration 10.0 uM
[25] = biological target: Nicotinic acetylcholine receptor alpha-1/beta-1 (Homo sapiens) (UniProt P02708+P11230); assay: NACH_BS_N/H Eurofins-Panlabs selectivity data (BI); format: protein-complex assay; settings: Compound concentration 10.0 uM
[26] = biological target: 5-hydroxytryptamine receptor 6 (Homo sapiens) (UniProt P50406); settings: Compound concentration 10.0 uM
[27] = biological target: C-C chemokine receptor type 1 (Homo sapiens, UniProt P32246); assay: Ca flux
[28] = biological target: Homeodomain-interacting protein kinase 1 (Homo sapiens) (UniProt Q86Z02); settings: Compound concentration 1000.0 nM
[29] = biological target: 5-hydroxytryptamine receptor 2C (Homo sapiens) (UniProt P28335); settings: Compound concentration 10.0 uM
[30] = biological target: Myosin light chain kinase (Homo sapiens) (UniProt Q32MK0); settings: Compound concentration 1000.0 nM
[31] = biological target: RAC-beta serine/threonine-protein kinase (Homo sapiens) (UniProt P31751); settings: Compound concentration 1000.0 nM
[32] = test system: Epidermal growth factor receptor (Homo sapiens), P00533 [UNDEFINED MUTATION]; settings: Compound concentration 1000.0 nM
[33] = biological target: Serine/threonine-protein kinase ULK2 (Homo sapiens) (UniProt Q8IYT8); settings: Compound concentration 1000.0 nM

C-C chemokine receptor type 1, sequence (P32246 whole entry): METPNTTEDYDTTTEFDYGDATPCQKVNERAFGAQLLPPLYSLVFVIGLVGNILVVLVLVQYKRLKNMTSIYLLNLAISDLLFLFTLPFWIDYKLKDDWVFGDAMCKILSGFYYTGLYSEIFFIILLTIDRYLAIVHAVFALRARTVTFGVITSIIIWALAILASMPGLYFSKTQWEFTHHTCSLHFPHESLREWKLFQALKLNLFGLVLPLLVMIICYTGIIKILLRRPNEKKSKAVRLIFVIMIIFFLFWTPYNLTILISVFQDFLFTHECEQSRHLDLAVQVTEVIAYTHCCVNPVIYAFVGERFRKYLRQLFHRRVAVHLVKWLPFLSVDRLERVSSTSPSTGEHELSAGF
hERG (KCNH2), sequence (Q12809 whole entry): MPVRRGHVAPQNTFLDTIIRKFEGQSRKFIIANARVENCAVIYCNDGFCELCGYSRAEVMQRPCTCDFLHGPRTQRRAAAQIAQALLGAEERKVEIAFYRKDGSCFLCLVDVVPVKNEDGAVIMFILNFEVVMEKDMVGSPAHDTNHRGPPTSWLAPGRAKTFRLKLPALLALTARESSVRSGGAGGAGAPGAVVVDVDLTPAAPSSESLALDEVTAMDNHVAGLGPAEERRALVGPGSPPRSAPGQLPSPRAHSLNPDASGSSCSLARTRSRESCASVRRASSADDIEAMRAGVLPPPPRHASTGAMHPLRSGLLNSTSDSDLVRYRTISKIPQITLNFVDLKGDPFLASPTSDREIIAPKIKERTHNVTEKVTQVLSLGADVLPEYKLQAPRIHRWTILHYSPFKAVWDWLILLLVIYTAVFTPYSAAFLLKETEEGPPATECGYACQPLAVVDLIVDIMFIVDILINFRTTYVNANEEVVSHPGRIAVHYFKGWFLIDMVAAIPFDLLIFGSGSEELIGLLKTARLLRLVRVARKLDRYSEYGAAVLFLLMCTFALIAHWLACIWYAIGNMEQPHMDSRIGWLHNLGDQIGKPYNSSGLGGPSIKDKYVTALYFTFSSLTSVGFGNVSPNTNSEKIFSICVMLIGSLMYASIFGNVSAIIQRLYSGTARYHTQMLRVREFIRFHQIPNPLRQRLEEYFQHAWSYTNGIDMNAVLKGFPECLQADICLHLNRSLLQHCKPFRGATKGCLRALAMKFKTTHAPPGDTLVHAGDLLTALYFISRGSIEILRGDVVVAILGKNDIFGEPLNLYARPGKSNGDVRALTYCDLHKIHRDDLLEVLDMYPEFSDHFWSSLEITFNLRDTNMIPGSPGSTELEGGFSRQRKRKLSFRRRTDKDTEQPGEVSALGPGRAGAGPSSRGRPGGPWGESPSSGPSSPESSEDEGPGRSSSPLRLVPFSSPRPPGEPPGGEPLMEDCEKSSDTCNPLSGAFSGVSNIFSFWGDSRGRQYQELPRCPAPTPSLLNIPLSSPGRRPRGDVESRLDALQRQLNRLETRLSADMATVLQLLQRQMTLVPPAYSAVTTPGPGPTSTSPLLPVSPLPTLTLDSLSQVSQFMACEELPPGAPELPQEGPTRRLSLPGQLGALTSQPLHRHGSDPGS
Beta-1 adrenergic receptor, sequence (P08588 whole entry): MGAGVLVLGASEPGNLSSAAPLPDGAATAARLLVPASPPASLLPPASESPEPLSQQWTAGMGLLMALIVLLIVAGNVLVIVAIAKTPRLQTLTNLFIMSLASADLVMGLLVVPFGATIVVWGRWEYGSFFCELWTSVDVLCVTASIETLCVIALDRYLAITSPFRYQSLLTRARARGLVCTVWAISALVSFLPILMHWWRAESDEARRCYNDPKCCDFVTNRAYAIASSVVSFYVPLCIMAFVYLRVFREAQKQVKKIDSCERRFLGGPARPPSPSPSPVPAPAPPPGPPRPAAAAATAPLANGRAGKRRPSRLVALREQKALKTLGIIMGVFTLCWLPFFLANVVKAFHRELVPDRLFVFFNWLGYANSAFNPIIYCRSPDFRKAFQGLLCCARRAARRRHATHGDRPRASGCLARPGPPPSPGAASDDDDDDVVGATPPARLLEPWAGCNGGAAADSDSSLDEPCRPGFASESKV
Gamma-aminobutyric acid receptor subunit alpha-1 (Rattus norvegicus), sequence (P62813 whole entry): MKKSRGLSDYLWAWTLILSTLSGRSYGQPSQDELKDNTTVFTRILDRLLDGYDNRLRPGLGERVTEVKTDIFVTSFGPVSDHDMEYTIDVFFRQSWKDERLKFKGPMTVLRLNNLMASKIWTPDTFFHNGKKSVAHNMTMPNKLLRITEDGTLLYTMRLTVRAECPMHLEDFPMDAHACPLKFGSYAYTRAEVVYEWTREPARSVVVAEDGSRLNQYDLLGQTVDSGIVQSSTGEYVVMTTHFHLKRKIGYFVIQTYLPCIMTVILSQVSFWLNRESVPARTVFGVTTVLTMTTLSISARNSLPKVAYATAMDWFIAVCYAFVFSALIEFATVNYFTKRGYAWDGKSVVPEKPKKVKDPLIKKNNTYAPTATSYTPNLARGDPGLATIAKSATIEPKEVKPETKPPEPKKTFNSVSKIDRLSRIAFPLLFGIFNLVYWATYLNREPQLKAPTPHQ
Mu-type opioid receptor (Homo sapiens), sequence (P35372 whole entry): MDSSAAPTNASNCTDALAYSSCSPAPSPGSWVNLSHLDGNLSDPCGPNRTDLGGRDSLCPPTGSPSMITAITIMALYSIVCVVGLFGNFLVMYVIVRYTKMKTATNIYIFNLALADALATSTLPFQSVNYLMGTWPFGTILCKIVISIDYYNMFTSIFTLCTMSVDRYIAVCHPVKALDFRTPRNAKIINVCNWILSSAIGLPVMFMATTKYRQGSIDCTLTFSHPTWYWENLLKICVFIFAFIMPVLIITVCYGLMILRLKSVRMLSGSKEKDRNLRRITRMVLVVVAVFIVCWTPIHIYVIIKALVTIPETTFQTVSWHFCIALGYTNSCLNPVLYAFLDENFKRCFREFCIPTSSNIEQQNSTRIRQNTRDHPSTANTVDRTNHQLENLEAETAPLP
D(1A) dopamine receptor (Homo sapiens), sequence (P21728 whole entry): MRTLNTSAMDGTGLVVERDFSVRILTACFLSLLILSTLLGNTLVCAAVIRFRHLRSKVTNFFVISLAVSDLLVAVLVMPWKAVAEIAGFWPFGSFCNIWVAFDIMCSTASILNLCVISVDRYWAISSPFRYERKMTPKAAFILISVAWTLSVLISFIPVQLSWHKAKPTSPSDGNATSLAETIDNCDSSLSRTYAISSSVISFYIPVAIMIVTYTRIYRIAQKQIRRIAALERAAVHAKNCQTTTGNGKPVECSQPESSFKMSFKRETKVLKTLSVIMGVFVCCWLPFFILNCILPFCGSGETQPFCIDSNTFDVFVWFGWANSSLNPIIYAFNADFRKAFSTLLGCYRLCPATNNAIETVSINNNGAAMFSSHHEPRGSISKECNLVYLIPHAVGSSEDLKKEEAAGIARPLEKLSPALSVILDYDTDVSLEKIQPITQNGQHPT
RAC-beta serine/threonine-protein kinase (Homo sapiens), sequence (P31751 whole entry): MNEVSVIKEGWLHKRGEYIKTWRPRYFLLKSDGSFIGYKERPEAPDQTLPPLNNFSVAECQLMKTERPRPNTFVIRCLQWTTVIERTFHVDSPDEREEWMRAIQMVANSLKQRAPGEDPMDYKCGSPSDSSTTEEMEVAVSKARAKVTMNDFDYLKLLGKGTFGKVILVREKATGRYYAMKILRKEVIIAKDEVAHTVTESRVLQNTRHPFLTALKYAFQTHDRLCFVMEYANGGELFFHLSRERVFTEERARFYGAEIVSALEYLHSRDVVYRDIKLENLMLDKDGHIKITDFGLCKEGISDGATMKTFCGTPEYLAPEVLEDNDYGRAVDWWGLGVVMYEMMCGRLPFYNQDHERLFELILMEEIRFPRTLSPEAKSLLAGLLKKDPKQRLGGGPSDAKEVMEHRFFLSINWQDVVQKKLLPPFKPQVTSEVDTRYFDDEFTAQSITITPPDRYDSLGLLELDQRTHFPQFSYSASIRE
Endothelin receptor type B (Homo sapiens), sequence (P24530 whole entry): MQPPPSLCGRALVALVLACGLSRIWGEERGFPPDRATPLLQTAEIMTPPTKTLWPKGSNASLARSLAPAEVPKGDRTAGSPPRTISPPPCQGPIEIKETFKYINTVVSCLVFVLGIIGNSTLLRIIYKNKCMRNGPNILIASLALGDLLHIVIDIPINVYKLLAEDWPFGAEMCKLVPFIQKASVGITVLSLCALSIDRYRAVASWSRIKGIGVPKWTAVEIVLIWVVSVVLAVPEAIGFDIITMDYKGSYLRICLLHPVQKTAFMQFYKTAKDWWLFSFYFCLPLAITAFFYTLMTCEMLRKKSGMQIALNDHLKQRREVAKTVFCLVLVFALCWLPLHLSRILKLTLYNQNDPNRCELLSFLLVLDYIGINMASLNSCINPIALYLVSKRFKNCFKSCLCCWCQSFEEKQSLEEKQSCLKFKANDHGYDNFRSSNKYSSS

## CS(=O)(=O)c1cc(C2(NC(=O)c3cncc4c3cnn4-c3ccc(F)cc3)CC2)ccn1 [BI 639667]
[1]
  residual activity: 94%
[2]
  residual activity: 93%
[3]
  residual activity: 87%
[4]
  residual activity: 97%
[5]
  residual activity: 81%
[6]
  residual activity: 86%
[7]
  residual activity: 98%
[8]
  residual activity: 100%
[9]
  activity at 10 µM: 104% (not active)
[10]
  residual activity: 93%
[11]
  residual activity: 100%
[12]
  residual activity: 79%
[13]
  Ki: 1880 nM
[14]
  residual activity: 97%
[15]
  residual activity: 96%
[16]
  residual activity: 97%
[17]
  residual activity: 86%
[18]
  residual activity: 89%
[19]
  residual activity: 90%
[20]
  residual activity: 90%
[21]
  residual activity: 88%
[22]
  residual activity: 93%
[23]
  residual activity: 89%
[24]
  residual activity: 100%
[25]
  residual activity: 100%

## CS(=O)(=O)NCC[C@H](NC(=O)c1cncc2c1cnn2-c1ccc(F)cc1)c1ccnc(S(C)(=O)=O)c1 [BI 9307]
[26]
  inhibition: -4.31%
[27]
  IC50: > 3000 nM (not active)
[28]
  residual activity: 100%
[29]
  inhibition: -0.86%
[30]
  residual activity: 100%
[31]
  residual activity: 100%
[32]
  residual activity: 71%
[33]
  residual activity: 100%
